Data published in a melting point compilation (Tetko et al.; mined from patent text by program, amines drawn as free bases though some values may be those of a salt).

| melting point [°C] | Structure (SMILES) |
| --- | --- |
| 157 to 159 | CC(C)(C)OC(=O)NC1CCCCCC=CC2CC2(C(=O)NS(=O)(=O)C2CC2)NC(=O)C2CC(OC(=O)c3cccnc3)CN2C1=O (stereo not given) |
| 135 to 136 | Cc1cc(Oc2ccc(C(=O)C=CC(=O)O)cc2)ccc1Cl |
| 144 | CCc1cc(CC(=O)O)ccc1OCc1ccc2ccccc2n1 |
| 130 | CCCC(=O)N1CCc2nc3ccccc3c(C)c2CC1 |
| 73 | COc1ccc(-c2ccc(C)cn2)c(F)c1F |
| 81 to 83 | CCOC(=O)C(C#N)c1cn(C(=O)OCC)c2ccc(OC)cc12 (stereo not given) |
| > 300 | Cc1ccc2c(n1)sc1c(O)cnnc12 |
| 151 to 152 | Cc1c(CNCC(C)(C)O)[nH]c2c(C)c(NC(=O)c3ccc(OC[C@@H]4CCCO4)cc3F)ccc12 |
| 150 to 154 | CCCCS(=O)c1ccc(C(=O)OC)nc1 (stereo not given) |
| 214 to 216 | COc1ccc(CN2C(=O)C3(COc4cc5onc(N)c5cc43)c3ccccc32)cc1 (stereo not given) |
| 236 | N=C(NO)c1ccc2nc(N[C@@H]3CCc4ccccc43)ccc2c1 |
| 160 to 162 | COc1ccnc(N2CCN(Cc3ccc(C(C)(C)NC(C)=O)cc3)CC2)n1 |
| 234 to 235 | CCSc1nc2ccccc2c(=O)n1NC(=O)Nc1ccc(Cl)cc1 |
| 68 to 70 | CC(=O)c1cccc(Oc2ncccc2C(=O)NCc2ccc(C(C)(C)O)cc2F)c1 |
| 88 | COc1ccc(C2CCCCC2)cc1-c1csc(NC(=O)N2CCN(C[C@@H]3CCCN(C4CC4)C3)CC2)n1 |
| 157 to 158 | CCOC(=O)C=CCn1c(C(=O)c2cc(C)cc(C)c2)c(CC)c(=O)[nH]c1=O |
| 139 to 140 | CC(C)C(=O)N1CCC(C(CS(=O)(=O)c2ccc(Oc3ccc(OC(F)(F)F)cc3)cc2)N(O)C=O)CC1 (stereo not given) |
| 141 to 142 | CC(C)=Cn1ncc(OCc2ccc(I)nc2)c(Cl)c1=O |
| 33 to 34 | OCc1cc(Cc2ccccc2)cs1 |

| melting point [°C] | Structure (SMILES) |
| --- | --- |
| 87 to 89 | C=C(OC(=O)c1ccc(C(C)(C)C)cc1)c1ccc(OC)cc1 |
| 142 | CCOC(=O)N1CC[C@H](NC(=O)c2cc(N)c(Cl)cc2OC)[C@H](OC)C1 (relative stereo) |
| 136 to 138 | Oc1ccc(CN[C@H]2CC[C@@H](C(c3ccccc3)c3ccccc3)OC2)cc1 (relative stereo) |
| 86 to 87 | COC(=O)C(=O)c1ccc(OCCOC2CCc3ccccc3C2)cc1 (stereo not given) |
| 115 to 118 | OCc1csc(Nc2ccccc2)n1 |
| 121 to 126 | COc1cc(C(O)CN2CCC(C(c3ccccc3)c3ccccc3)CC2)on1 (stereo not given) |
| 118 to 122 | CCOC(=O)CN1CCN(CC(O)COc2cc3c(Nc4cccc(Br)c4)ncnc3cc2OC)CC1 (stereo not given) |
| 243 to 244 | COc1cc(NC(C)=O)cc(OC)c1-c1ccc(C[C@H](NC(=O)c2c(Cl)cccc2Cl)C(=O)O)cc1 |
| 160 to 161 | CCCc1c(Cc2ccccc2)ccc2c(=O)cc(CCC(=O)O)oc12 |
| 169 to 171 | CCc1cc(OCC(=O)O)c(C)cc1SCc1sc(-c2ccc(C(F)(F)F)cc2)nc1C |
| 176 to 178 | Cc1cc(CC(=O)O)n(C)c1C(=O)c1ccc(F)cc1 |
| 84 | COC(=O)CCCc1cc2cc(C(F)(F)F)ccc2n1S(=O)(=O)c1cccc(C(C)(C)C)c1 |
| 103 to 105 | CC(=O)NC[C@H]1CN(c2ccc(N3CCSC3)c(F)c2)C(=O)O1 |
| 76 to 77 | COc1ccc2c(c1)OC(=O)N(C1CCCCC1)C2 |
| 65 to 72 | CCc1cc(C#N)cc(C)c1CC(=O)OC |
| 125 to 126 | COC(=O)C=C1NCC(c2ccccc2)OC1=O (stereo not given) |
| 113 to 116 | COC(=O)c1sccc1S(=O)(=O)Nc1onc(C)c1C |
| 160 | O=C(Nc1ccc2[nH]c(CNCC3CCOCC3)cc2c1)c1ccc(OCC2CC2)cc1 |
| 138 to 139 | CC(C)NCC(O)COc1ccc(NC(=O)N(C)C)cc1 (stereo not given) |

| melting point [°C] | Structure (SMILES) |
| --- | --- |
| 100 to 102 | Cc1ccc(C2=NN(C(=O)c3cccnc3)CC2)cc1 |
| 137 | COc1ccc(-c2ncccc2OC2SCC(O)C(O)C2O)cc1 (stereo not given) |
| 153 to 155 | COc1ccc(C(=O)N[C@H]2CCN(C)C[C@H]2c2ccccc2)cc1OC (relative stereo) |
| 132 to 134 | Cc1cc(C(C)(O)c2ccc(C(F)(F)F)cn2)ccc1NC(=O)OC(C)(C)C (stereo not given) |
| 159 to 162 | CC(C)(C(=O)c1ccc(N2CCCCC2)cc1)N1CCOCC1 |
| 146 to 148 | COc1c(C)c2c(c(OS(C)(=O)=O)c1C/C=C(/Cl)CBr)C(=O)OC2 |
| 178 | O=C1NC(=O)[C@@]2(C[C@@H](C(=O)NO)Oc3ccc(F)cc32)N1 |
| 238 to 241 | Cc1cc(Nc2ccc(C(=O)O)cc2)c2[nH]ncc2n1 |
| 110 to 111 | CCCNC(=N)Nc1nc2ccc(OC(F)(F)F)cc2s1 |
| 144 | CCCCc1c[nH]c2cccc(SC)c2c1=O |
| 57 | COC(=O)CCNc1cccc(CNC(=O)C2Cc3ccccc3N2S(=O)(=O)c2ccc(-c3cccc(C(F)(F)F)c3)cc2)c1 (stereo not given) |
| 118 to 120 | COCCCn1c(O)nc2ccc(C)cc21 |
| 152 to 153 | CCO[C@@H](Cc1ccc(OCCc2nc(C(C)(C)C)oc2C)c2ccsc12)C(=O)O |
| 199 to 200 | Cc1ccccc1Nc1nc2ccc(CC(=O)O)cc2o1 |
| 138 to 140 | CN(Cc1cccc(Cl)c1)c1ccc(C(=O)O)nc1 |
| 203 to 205 | CCOCc1nc2c(N)nc3cc(C=O)ccc3c2n1CC(C)(C)O |
| 98 to 100 | CCC1Cc2c(C)ccc(NNC(=O)OC)c2O1 (stereo not given) |
| 141 to 143 | CCCC(=O)c1ccc(NC(C)=O)cc1 |
| 132 to 135 | COc1ccc(C(=O)CN2CCN(c3cccccc3=O)CC2)cc1OC |

The remaining lines, values behind:

| Structure (SMILES) | melting point [°C] |
| --- | --- |
| CCCc1nc(S(=O)(=O)Nc2ccccc2Br)nn1-c1ccccc1 | 119 to 121 |
| Nc1cc(-c2ccnc3c(C(=O)c4cccs4)cnn23)ccc1F | 241 to 242 |
| O=S1(=O)N=C(O)C(O)=N1 | 171 to 172 |
| CC(C)(C)OC(=O)C[C@H](NC(=O)CNC(=O)c1csc(NC(=O)NCc2ccccc2)n1)C(=O)NCc1ccccc1 | 123 |
| O=S(=O)(c1ccc(Cl)cc1)c1ccc(Cl)s1 | 108 |
| O=C(O)C1C=CC=CC1(F)OC(Cc1c(CCNS(=O)(=O)Cc2ccc(Cl)c(Cl)c2)[nH]c2ccc(Cl)cc12)C(c1ccccc1)c1ccccc1 (stereo not given) | 117 to 119 |
| COc1cc2nc(N3CCN(c4nc5ccccc5o4)CC3)nc(N)c2cc1OC | > 250 |
| C#Cc1ccc(C23OCC(C4CCCCC4)(CO2)CO3)cc1 | 190 to 192 |
| NC(=S)N1CCCCc2cccnc21 | 121 |
| CSc1ccc2ncc([N+](=O)[O-])c(-c3ccccc3)c2c1 | 131 to 133 |
| OCC12CO[C@@H](c3ccc(C(F)(F)F)cc3)N1[C@H](c1ccc(C(F)(F)F)cc1)OC2 | 120 |
| CSC(=N)NS(=O)(=O)CCl | 60 to 62 |
| CN(c1nc(-c2cc3ccccc3[nH]c2=O)cs1)S(=O)(=O)c1cccc(F)c1 | 247 to 249 |
| O=C(O)c1cccc(-c2ccc3c(c2)N(Cc2ccc(Cl)c(Cl)c2)CC3)c1 | 167 to 168 |
| C=CCN(c1ccccc1CC(=O)O)c1c(Cl)cccc1Cl | 148 |
| FC(F)(F)c1ccc(OC2(c3ccccc3)CCNCC2)cc1 | 104 to 105 |
| c1ccc(C2CCN=C(c3csnn3)N2)cc1 (stereo not given) | 158 |
| c1cnc(SCc2nc3ccccc3[nH]2)nc1 | 154 to 155 |
| N#CCc1nnc2n1-c1ccc(Cl)cc1C(c1ccccc1)=NC2 | 198 to 201 |
| O=C(CCc1ccccc1)Nc1ccc([N+](=O)[O-])cc1 | 117 to 119 |
| CNc1nc(NC)c2ncn(COC(COC(=O)C(C)C)COC(=O)C(C)C)c2n1 | 122 to 123 |
| O=C(CN1CCN(c2ccccc2)CC1)N1CCC(C(=O)N2CCC2)(c2cccc(C(F)(F)F)c2)CC1 | 147 to 149 |

| Structure (SMILES) | melting point [°C] |
| --- | --- |
| O=P(NP(=S)(Oc1ccccc1)Oc1ccccc1)(Oc1ccccc1)Oc1ccccc1 | 103 to 105 |
| CN1CCN(C(=O)OC2c3ccccc3C(=O)N2c2ccc3c(Cl)ccnc3n2)CC1 (stereo not given) | 240 |
| O=S1(=O)NCCCN1CCc1ccncc1 | 124 to 125 |
| Fc1ccc(Nc2nc(Cl)nc(Cl)n2)cc1C(F)(F)F | 114 to 117 |
| CCCCCCCCCN1C(=O)N(c2ccc([N+](=O)[O-])c(C(F)(F)F)c2)C(=O)C1(C)C | 63 |
| O=S(=O)(c1ccccc1)n1c(SC(F)(F)F)nc(-c2ccc(F)cc2)c1-c1ccc(F)cc1 | 154 to 155 |
| O=C(Nc1cc(C(F)(F)F)cc(C(F)(F)F)c1)Nc1cc(C(F)(F)F)ccc1Oc1ccccc1C(=O)O | 229 to 231 |
| c1ccc(COc2ccc(CCCn3ccnc3)cc2)cc1 | 80 to 81 |
| Cn1cncc1C(O)(c1ccoc1)c1ccc2c(c1)c(-c1cccc(Cl)c1)cc(=O)n2C (stereo not given) | 248 |
| CC(C)(C)[Si](ON1C(=O)c2ccccc2C1=O)(c1ccccc1)c1ccccc1 | 138 to 143 |
| O=C(O)/C=C/c1ccn(C2CCCCCC2)c1 | 138 to 140 |
| CCOc1cc(OCCCc2cn(-c3ccc(C(F)(F)F)cn3)nc2OCC)ccc1CCC(=O)O | 96 to 97 |
| ClC(=NNc1ccccc1)c1c(Cl)cccc1Cl | 95.5 to 96.5 |
| Fc1cccc(F)c1-c1nc2ccccc2n1Cc1ccccc1 | 124 |
| CC1(C)CCc2c(N3CCOCC3)nc3sc4c(NCCCN5CCCC5=O)ncnc4c3c21 | 142 to 143 |
| NCCc1cccc(N2CCN(c3ccc(CCC(=O)O)cc3)C2=O)c1 | > 250 |
| O=C(O)C1C2CC3C(C2=O)C31 (stereo not given) | 144 to 145 |
| O=C1c2ccccc2C(=O)N1Cc1noc(-c2ncn3c2[C@@H]2CCN2C(=O)c2ccccc2-3)n1 | 290 to 292 |
| COC1=NS(=O)N=C1OC | 137 to 139 |
| CCOC(=O)c1ncn2c1CN(C)C(=O)c1c(C#N)cccc1-2 | 200 to 201 |
| O=[N+]([O-])C=C(NCc1ccc(Cl)nc1)NCc1ccc(Cl)nc1 | 238 to 240 |
